Earlier results in patent US9526741B2, “Chemosensory receptor ligand-based therapies” (NaZura BioHealth, Inc., priority 2009, dated 2016).

Tested on: GLP-1
Conditions: humans

Q: With `OCCN1C[C@H](O)[C@@H](O)[C@H](O)[C@H]1CO` [miglitol] as the compound, how does the “postprandial GLP-1 levels” value read?
A: increase
